The values below come from US20230303551A1, “N-CYCLYL-SULFONAMIDES USEFUL FOR INHIBITING RAF” (ALBERT EINSTEIN COLLEGE OF MEDICINE, priority 2020, published 2023).

“Also recorded” adds a separate entry of the source.

The subject of data set [1] is p-ERK1/2 and p-MEK1/2 in SKMEL239-C4 cells. Nature of the data set: Wash-out and recovery of MAPK signaling in SKMEL239-C4 cells. It is filed as cell-based. The note with it: SKMEL239-C4, 500 nM for 1 hr, then washout.
Another data set deals with p-MEK in A375 cells. Nature of the data set: Wash-out and recovery of MAPK signaling in A375 cells. It is filed as cell-based. The settings on record: for relative p-MEK1/2 after washout: A375, 500 nM for 1 hr, then washout. As to the method:
Wash-out experiments were conducted in A375 cells. After treatment with inhibitors at 500 nM for 1 h (on time), cells were incubated with fresh medium for the indicated times (off time). p-MEK levels were determined by WB and were quantified by densitometric analysis. p-MEK levels were normalized to total ERK1/2 which was used as loading control and control cells (DMSO treatment). Data were fit to an exponential model using least squares, to obtain apparent half-life (t1/2) values.
(§1) Densitometric data for p-ERK, p-MEK, ERK1/2 (MAPK cellular activity) or BRAF and GAPDH (CETSA analysis) from western blot scanned films were obtained using Image Studio software (LI-COR). Data were corrected to loading control (total ERK1/2 or GAPDH) and normalized to DMSO treated bands (100%) and blot backgrounds (0%). IC50 or Tm values were obtained from non-linear regression fits of normalized data to a four-parameter logistic curve (4PL).

The subject of the next data set is RKO cells. The experiment in a line: Cell viability (Cell-Titer Glo), RKO. Type of data set: cell-based. As to the method:
(§2) For cell viability and proliferation assays, we followed the manufacturer's protocol for Cell-Titer Glo (Promega). In brief, cells were plated in 96-well plates at a density of 5000 cells per well. The next day, cells were treated with increasing concentrations of inhibitors for 72 hours at 37° C. At the end of the incubation period, 100 μL of Cell-Titer Glo (Promega) was added to each well and further incubated for 15 min at room temperature. Cell viability was determined by measuring luminescence and was detected by a F200 PRO microplate reader (TECAN). Viability assays were performed in at least triplicate and the data normalized to vehicle-treated control wells. IC50 values were determined by nonlinear regression analysis using Prism software (Graphpad). Antiproliferative synergy was determined by co-treatment of inhibitors at indicated concentrations in 96-well plated at a density of 3000 cells per well. Inhibitors or DMSO control were injected using a D300e digital dispenser (TECAN). Extend of synergy was quantified using the BLISS matrix method.

The test system of the next data set is panel of 97 kinases. The experiment in a line: KinomeScan. Type of data set: binding. The note with it: competition screen.
In data set [2] the target is T1, BRAF^V600E (Homo sapiens, UniProt P15056, V600E). Nature of the data set: Cellular Thermal Shift Assay (CETSA) in A375 cells. Type of data set: cell-based. Also on record: endogenous in cells; host or cells: A375 melanoma cells. The note with it: A375 cells, 1, 5 and 20 μM.
From the text: as §1
For CETSA analysis, cultured A375 melanoma cells were washed with Dulbecco's phosphate buffered saline (DPBS) and split into 500 μL aliquots (each containing 3,75 million cells) in the same buffer, containing DMSO control (20 μM) or 1, 5 and 20 μM of DAB or DABK. The samples were incubated for 1 hr at room temperature, rotating. After compound incubation, samples (50 μL each) were transferred in PCR tubes and incubated for 3 min in a temperature gradient produced with a C1000 thermal cycler (Bio-Rad). Cells were immediately lysed by repeating freeze-thaw cycles (3× times) in liquid nitrogen. Lysates were spun in a microcentrifuge at 15.000× g for 15 min at 4° C. Equal volumes of supernatants were run on 15-well 4-12% NuPAGE SDS-PAGE gels (Invitrogen), and analyzed by western blot. Results were quantitated by densitometric analysis and were normalized to GAPDH loading control, which is temperature insensitive under these conditions. […]

The subject of the next data set is SK-MEL-239-C4 cells. Nature of the data set: Cell viability (Cell-Titer Glo), SK-MEL-239-C4. The settings on record: SK-MEL-239-C4, 72 hr. Type of data set: cell-based. As to the method: as §2
Data set [3] concerns the target T1, BRAF^V600E. Nature of the data set: Z'-LYTE kinase activity assay, BRAF^V600E. Type of data set: biochemical. The note with it: equilibrium; ZLYTE. As to the method: BRAF kinase assays were performed using the Z′-LYTE™ enzymatic assay (Invitrogen, USA). […] Titrations were performed using a 1:3 dilution. Assays were performed using SelectScreen (Invitrogen).

Another data set concerns the target full length BRAF^V600E (Homo sapiens, UniProt P15056, V600E). Nature of the data set: In vitro residence time (ATP-site tracer T178 displacement, LanthaScreen). It is filed as binding. The settings on record: kinase ATP-probe displacement. As to the method:
Residence times of inhibitors to recombinant full-length BRAF was determined using an adaptation of the LanthaScreen Eu Kinase Binding Assay (Invitrogen). Initially, binding of inhibitors to his-tagged BRAF labelled with Eu-anti-his antibody at 80-90% saturation was established, by incubating inhibitors and BRAF in PBS buffer (max DMSO 2%) for […] The reactions were then rapidly diluted 25× times in a saturated concentration of the fluorescent ATP-site tracer T178 (Invitrogen). Dissociation of inhibitors from BRAF by T178 tracer was monitored in real-time by detecting the TR-FRET […] to […] emission ratio every 20 sec. The TR-FRET signal was normalized between 100% (no inhibitors present) and 0% (saturated inhibitor binding). Time traces were fit to a single exponential to obtain the half-life (t1/2) of dissociation of inhibitors. Residence times for each inhibitor were calculated as (t1/2)/ln2.

In data set [4] the test system is pERK in melanoma A375 cells expressing BRAF^V600E. Nature of the data set: pERK inhibition in A375 cells (Western blot densitometry). It is filed as cell-based. The settings on record: 1 hr treatment. As to the method: Western blots were performed from whole cell lysates (WCLs) prepared in lysis buffer containing 50 mM Tris-HCl pH7.5, 1% NP40, 150 mM NaCl, 1 mM EDTA and 10% glycerol in the presence of protease inhibitor cocktail (Roche). WCLs were separated on a 4-12% NuPAGE MES gel (Invitrogen), transferred onto a PVDF membrane, blocked for lhr and immunoblotted with the corresponding antibodies.
as §1
In general terms: In western blotting, separated proteins are transferred to a membrane and probed.

The subject of data set [5] is pERK in A375 xenograft tumors. The experiment in a line: Pharmacodynamic study, pERK in A375 xenograft tumors. Type of data set: in vivo, female SCID mice. The settings on record: 5 mg/kg single oral dose, A375 mice xenograft. The method, then: (§3) The pharmacokinetic profile of DAB and DABK was assessed in CD-1 female mice after a single dose at 5 mg/kg by oral gavage. Blood samples were collected at various time points (0.5, 1, 2, 4, 6, 12 and 24 hr after oral gavage) and inhibitor concentrations in plasma determined by an internal standard HPLC-chromatography tandem mass spectrometry method using calibration standards prepared in blank mouse plasma. Reported plasma concentrations are average values from 3 mice per time point. For PD study, tumor xenografts were established by subcutaneous implantation of A375 melanoma cells plus Matrigel (BD Biosciences) into the right flank of female SCID mice. Mice were randomized to treatment and control groups when the average tumor volume reached 100-150 mm^3 and were treated with a single oral dose (PO) of either vehicle or inhibitors at 5 mg/kg. Tumors were harvested at 2, 12 and 24 hr post PO (3 mice per group). Harvested tumors were homogenized in lysis buffer containing 50 mM Tris-HCl pH7.5, 1% NP40, 150 mM NaCl, 1 mM EDTA, 10% glycerol and phosphatase/protease inhibitors. pERK levels in clarified lysates were determined by Western Blotting and were expressed as % inhibition by normalization to average levels from vehicle tumors (0% inhibition). Vehicle formulation for DAB and DABK treatment in both PK and PD was 30% PEG-400, 0.5% Tween-20, 5% Glycerol in PBS.

The subject of the next data set is A549 cells. The experiment in a line: Cell viability and antiproliferative synergy with cobimetinib (Bliss matrix), A549. It is filed as cell-based. The settings on record: A549, combination with cobimetinib (COB). As to the method:
as §2

For the next data set, the system named is A375 cells. Nature of the data set: Cell viability (Cell-Titer Glo), A375. It is filed as cell-based. The settings on record: Homo sapiens, A-375; A375, 72 hr. The method, then:
as §2

In data set [6] the target is T1, BRAF^V600E. The experiment in a line: LanthaScreen Eu kinase binding assay. As to the method:
Binding affinity of inhibitors to recombinant full-length BRAF was determined using the LanthaScreen Eu Kinase Binding Assay (Invitrogen) in PBS buffer. Initially, saturated binding of fluorescent Alexa Fluor 647 ATP-site tracer T178 (Invitrogen) on BRAF, which was his-tagged at the N-terminus, was established. T178 tracer was then competed-off by increasing amounts of inhibitors in titration experiments in 96-well plates. Competition was detected by loss of TR-FRET signal. The signal was produced by a FRET pair between an Eu-labeled anti his-tag antibody, which recognizes his-tagged BRAF used in the assay, and the T178 tracer. The europium donor was excited using a 340 nm excitation filter and energy transfer to the T178 tracer was measured using a filter centered at 665 nm with a time delay of 200 μs. The emission ratio was calculated as the 665 nm signal divided by the 615 nm signal. The apparent % inhibition was calculated by least squares fits of the emission ratio. […] The maximum DMSO concentration in the assay was 2%.
On the technique in general: In TR-FRET formats the signal depends on donor and acceptor labels being close together.

Data set [7] can be described thus: Pharmacokinetic profile, mouse plasma levels after oral gavage. The settings on record: 5 mg/kg. It is filed as in vivo, CD-1 female mice. The method, then:
as §3

Chain of full length BRAF^V600E (P15056 whole entry V600E): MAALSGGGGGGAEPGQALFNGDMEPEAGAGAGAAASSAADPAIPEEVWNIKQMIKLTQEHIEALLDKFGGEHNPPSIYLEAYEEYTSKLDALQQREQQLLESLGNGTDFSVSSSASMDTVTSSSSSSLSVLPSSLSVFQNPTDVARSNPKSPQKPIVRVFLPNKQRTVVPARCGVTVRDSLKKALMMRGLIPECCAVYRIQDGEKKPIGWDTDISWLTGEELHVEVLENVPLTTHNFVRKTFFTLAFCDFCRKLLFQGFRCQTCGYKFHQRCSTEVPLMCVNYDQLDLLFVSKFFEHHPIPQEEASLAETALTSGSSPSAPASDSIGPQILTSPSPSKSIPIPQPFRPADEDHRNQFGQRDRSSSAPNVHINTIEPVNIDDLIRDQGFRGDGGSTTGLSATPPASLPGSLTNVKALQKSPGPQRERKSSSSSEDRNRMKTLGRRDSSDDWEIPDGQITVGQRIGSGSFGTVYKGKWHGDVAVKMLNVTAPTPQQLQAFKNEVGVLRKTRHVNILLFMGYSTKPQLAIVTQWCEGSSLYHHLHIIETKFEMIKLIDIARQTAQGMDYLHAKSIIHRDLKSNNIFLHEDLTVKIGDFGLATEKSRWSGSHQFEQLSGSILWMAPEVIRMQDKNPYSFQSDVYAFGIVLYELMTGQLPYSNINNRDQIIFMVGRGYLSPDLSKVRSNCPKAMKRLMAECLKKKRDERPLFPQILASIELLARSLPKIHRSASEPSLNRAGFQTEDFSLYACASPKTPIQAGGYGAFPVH
T1 sequence (P15056 whole entry V600E): as above

On to `COC(=O)N[C@@H](CN)CNc1nccc(-c2sc(C(C)(C)C)nc2-c2cccc(NS(=O)(=O)c3c(F)cccc3F)c2F)n1` [Compound K8], for which, in data set [1], the “p-MEK1/2 inhibition after washout” value was “Almost complete p-MEK1/2 inhibition over time” and the “relative p-ERK1/2 after washout” value was “prolonged ERK signaling inhibition over time”. Moreover, the “relative p-MEK1/2 after washout” value with p-MEK in A375 cells is given as “prolonged signaling inhibition over time”.

A word on the IC50: it is the concentration that inhibits the measured activity by half. On to `COC(=O)N[C@@H](C)CNc1nccc(-c2sc(C(C)(C)C)nc2-c2cccc(NS(=O)(=O)c3c(F)cccc3F)c2F)n1` [DABK], for which the IC50 is 20.6 nM with RKO cells (72 hr); 20 nM in the data set on RKO cells (Homo sapiens, 72 h); 35 nM in the data set on SK-MEL-239-C4 cells (72 h); 35.3 nM in the data set with SK-MEL-239-C4 cells; 3.4 nM with A375 cells. In addition, the “targeting selectivity across the kinome” value in the data set on panel of 97 kinases is “improved compared to DAB's; also recorded: improved targeting selectivity across the kinome; also recorded: higher specificity than DAB”. Also, the “melting temperature (Tm)” value at BRAF^V600E [2] is recorded as “very similar”. In addition, the “IC50, kinase inhibitory activity” value against BRAF^V600E [3] is given as “low nM range”. In data set [1], the “p-MEK1/2 inhibition after washout” value is recorded as “Almost complete p-MEK1/2 inhibition over time”. Further, in [1], the “relative p-ERK1/2 after washout” value was “prolonged ERK signaling inhibition over time”. For the same compound, the “apparent in vitro residence time (Koff)” value on full length BRAF^V600E was “sustained binding in the time frame of the experiment”. Also, the “IC50 of pERK inhibition” value in data set [4] is recorded as “comparable IC50 to Enco”. The “endurance of pERK inhibition in tumors” value in data set [5] was more than 12 hr. Besides, in the data set with p-MEK in A375 cells (A375, 500 nM for 1 h, then wash-out), the “half-life of recovery of pMEK inhibition” value is recorded as 2.5 hours. Moreover, the “relative p-MEK1/2 after washout” value in the data set with p-MEK in A375 cells was “prolonged signaling inhibition over time”. For the same compound, the “retention of p-MEK inhibition relative to DAB” value in the data set with p-MEK in A375 cells (A375 wash-out, times longer than DAB) is reported as “approximately 4.4 times”. Further, the “extent of antiproliferative synergy” value in the data set with A549 cells was “strong synergy”. Moreover, on BRAF^V600E [6], the “Kd, binding affinity” value was “low nM range”. The “clearance from the blood” value in data set [7] is “faster clearance from the blood than DAB”.

In the case of `COC(=O)N[C@@H](C)CNc1nccc(-c2cn(C(C)C)nc2-c2cc(Cl)cc(NS(C)(=O)=O)c2F)n1` [Enco, encorafenib], the IC50 in the data set with RKO cells (Homo sapiens, 72 h) is more than 400 nM; in the data set on SK-MEL-239-C4 cells (72 h) it was more than 400 nM. Moreover, at full length BRAF^V600E, the “apparent in vitro residence time (Koff)” value is listed as “sustained binding in the time frame of the experiment”.

For the compound `CC(C)(C)c1nc(-c2cccc(NS(=O)(=O)c3c(F)cccc3F)c2F)c(-c2ccnc(N)n2)s1` [DAB, dabrafenib], the IC50 in the data set with RKO cells (72 hr) is 425 nM; with RKO cells (Homo sapiens, 72 h), more than 400 nM; in the data set with SK-MEL-239-C4 cells (72 h), more than 400 nM; with SK-MEL-239-C4 cells, 456 nM; in the data set on A375 cells, 5.3 nM. Besides, on BRAF^V600E [2], the “melting temperature (Tm)” value is recorded as “very similar”. In addition, the “apparent in vitro residence time (Koff)” value at full length BRAF^V600E is given as “significantly shorter residence times”. Besides, the “IC50 of pERK inhibition” value in data set [4] is on record as “lower IC50”.

In the case of `C[C@@H](CNc1nccc(-c2sc(C(C)(C)C)nc2-c2cccc(NS(=O)(=O)c3c(F)cccc3F)c2F)n1)NC(=O)CCO` [Compound K6], in data set [1], the “p-MEK1/2 inhibition after washout” value was “Almost complete p-MEK1/2 inhibition over time” and the “relative p-ERK1/2 after washout” value is on record as “prolonged ERK signaling inhibition over time”. For the same compound, in the data set with p-MEK in A375 cells, the “relative p-MEK1/2 after washout” value is given as “prolonged signaling inhibition over time”.

As for `CCCS(=O)(=O)Nc1ccc(F)c(C(=O)c2c[nH]c3ncc(-c4ccc(Cl)cc4)cc23)c1F` [VEM, vemurafenib], the half-maximal inhibitory concentration (IC50) in the data set with RKO cells (Homo sapiens, 72 h) is more than 400 nM; in the data set with SK-MEL-239-C4 cells (72 h), more than 400 nM.
